Results published in patent US20260250257A1, “ANTIBACTERIAL AND SYNERGISTIC ACTIVE COMPOUND AND USE THEREOF” (EAST CHINA UNIVERSITY OF SCIENCE AND TECHNOLOGY, priority 2023, published 2026).
Converted amounts (≈) assume the structure as drawn.

Key:
Assay type in all cases: cell-based
[1] = test system: ATCC9027 strain (Pseudomonas aeruginosa); test: Checkerboard antibacterial synergistic activity test with polymyxin E (FIC); design: key: FIC≤0.5 synergy; 0.5–1 additive; 1–2 indifferent; ≥2 antagonism; conditions: combined with polymyxin E
Outline: (§1)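 Broth checkerboard synergy with colistin; listed dilutions are working solutions, not final well levels. Overnight incubation, 16 h at 37° C.; FIC ≤0.5 denotes synergy, ≥2 antagonism.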

[2] = test system: ATCC19606 strain (Acinetobacter baumannii); test: as above; design: key: FIC≤0.5 synergy; 0.5–1 additive; 1–2 indifferent; ≥2 antagonism; conditions: combined with polymyxin E
Outline: as §1

[3] = test system: ATCC25922 strain (Escherichia coli); test: as above; design: key: FIC≤0.5 synergy; 0.5–1 additive; 1–2 indifferent; ≥2 antagonism; conditions: combined with polymyxin E
Outline: as §1

[4] = test system: ATCC13883 strain (Klebsiella pneumoniae); test: as above; design: key: FIC≤0.5 synergy; 0.5–1 additive; 1–2 indifferent; ≥2 antagonism; conditions: combined with polymyxin E
Outline: as §1

[5] = test system: ATCC9027 strain (Pseudomonas aeruginosa); test: Broth microdilution, antibacterial activity of the compound used alone
Description: (§2) The broth microdilution method was used to test the antibacterial effects of the compounds of the present invention against various Gram-negative bacterial strains when used alone.

[6] = test system: ATCC19606 strain (Acinetobacter baumannii); test: as above
Description: as §2

[7] = test system: ATCC25922 strain (Escherichia coli); test: as above
Description: as §2

[8] = test system: ATCC13883 strain (Klebsiella pneumoniae); test: as above
Description: as §2

SMILES	Synergistic activity (FIC value) ATCC9027 [1]	Synergistic activity (FIC value) ATCC19606 [2]	Synergistic activity (FIC value) ATCC25922 [3]	Synergistic activity (FIC value) ATCC13883 [4]	Antibacterial activity of the compound of Formula I, ATCC9027 [5] [µg/mL]	Antibacterial activity of the compound of Formula I, ATCC19606 [6] [µg/mL]	Antibacterial activity of the compound of Formula I, ATCC25922 [7] [µg/mL]	Antibacterial activity of the compound of Formula I, ATCC13883 [8] [µg/mL]	MIC ([5]; read-out: Antibacterial activity of the compound of Formula I, ATCC9027) [µg/mL]	MIC ([6]; read-out: Antibacterial activity of the compound of Formula I, ATCC19606) [µg/mL]	MIC ([7]; read-out: Antibacterial activity of the compound of Formula I, ATCC25922) [µg/mL]	MIC ([8]; read-out: Antibacterial activity of the compound of Formula I, ATCC13883) [µg/mL]
N#Cc1cc(Oc2ccccc2I)cc(-c2coc(N=C3NCCCN3)n2)c1 [Compound I-157]	0.06	0.31	0.14	0.09	256	256	256	256	–	–	–	–
O=[N+]([O-])c1ccc(Oc2ccc(I)cc2I)cc1-c1c[se]c(N=C2NCCCN2)n1 [Compound I-158]	0.28	0.03	0.18	0.16	256	256	256	256	–	–	–	–
COc1ccc(Oc2cc(Br)cc(-c3csc(N=C4NCCCN4)n3)c2)c(OC)c1 [Compound I-159]	0.06	0.31	0.14	0.09	256	256	256	256	–	–	–	–
Clc1cc(Oc2ccc(Cl)cc2Cl)cc(-c2csc(N=C3NCCCN3)n2)c1 [Compound I-160]	0.28	0.03	0.18	0.16	256	256	256	256	–	–	–	–
Fc1cc(Oc2ccc(Cl)cc2Cl)cc(-c2csc(N=C3NCCCN3)n2)c1 [Compound I-161]	0.06	0.31	0.14	0.09	256	256	256	256	–	–	–	–
Cc1[nH]c(N=C2NCCCN2)nc1-c1cc(C(C)(C)C)cc(C(C)(C)C)c1 [Compound I-162]	0.28	0.03	0.18	0.16	256	256	256	256	–	–	–	–
CC(C)(C)c1cc(-c2csc(NC3=NCCCN3)n2)cc(C(C)(C)C)c1O [Compound I-163]	0.04	0.38	0.04	0.19	–	–	–	–	64 (≈ 166 µM)	256 (≈ 662 µM)	128 (≈ 331 µM)	128 (≈ 331 µM)
CC(C)c1ccccc1-c1nc(N=C2NCCCN2)sc1Br [Compound I-164]	0.62	0.15	0.39	0.33	256	256	256	256	–	–	–	–
CCc1oc(N=C2NCCCN2)nc1-c1cccc(C(C)C)c1 [Compound I-165]	0.53	0.13	0.38	0.31	256	256	256	256	–	–	–	–
CC(C)c1ccc(-c2c[nH]c(N=C3NCCCN3)n2)cc1 [Compound I-166]	1.25	1.25	0.5	1.25	256	256	256	256	–	–	–	–
Cc1sc(N=C2NCCCN2)nc1-c1cc(C(C)C)cc(C(C)C)c1 [Compound I-167]	0.63	0.3	0.5	0.25	256	256	256	256	–	–	–	–
CC(C)c1cc(-c2nc(N=C3NCCCN3)sc2Cl)cc(C(C)C)c1O [Compound I-168]	0.63	0.28	0.5	0.25	256	256	256	256	–	–	–	–
Cc1c(-c2coc(N=C3NCCCN3)n2)ccc(Cl)c1C#N [Compound I-169]	0.62	0.15	0.39	0.33	256	256	256	256	–	–	–	–
Cc1ccc(O)c(-c2c[nH]c(N=C3NCCCN3)n2)c1 [Compound I-170]	0.31	0.12	0.38	0.31	256	256	256	256	–	–	–	–
CNS(=O)(=O)c1cc(-c2c[se]c(N=C3NCCCN3)n2)ccc1C [Compound I-171]	0.56	0.75	0.5	0.63	256	256	256	256	–	–	–	–
